Experimental data published in patent US20220196635A1, “Fibrosis Assay” (Georgia Tech Research Corporation, priority 2020, published 2022).

How the values were obtained:
[1] = test system: human primary lung fibroblasts (NHLF, IPF) in fibrin micro-scaffolds; test: Contracting scar-in-a-drop fibroplasia assay (final projected area of cell-ECM spheroids); assay type: cell-based
Method: Human primary lung fibroblasts were used in all experiments presented in this paper. Unless otherwise noted, experiments utilized normal human lung fibroblasts (NHLF B lot #0000580583; Lonza) from a person with a history of smoking. For experiments evaluating donor variability, the following cells were utilized: NHLF A (NHLF lot #0000608197; Lonza) from a person, IPF A (IPF lot #0000627840; Lonza) from a person, and IPF B (IPF lot #6F5002; Lonza) from a person. All cells were cultured in fibroblast growth media (FGM; Lonza). Cells were passaged at 80-90% confluence and were sub-cultured in 1:3 ratios by trypsinization. When at the desired confluence, cells were washed with PBS and 0.05% trypsin solution was added to the flask. Cells were incubated for 2 min, and then harvested and centrifuged ([…], 5 min) in a conical tube. The supernatant was aspirated and the cell pellet was re-suspended in FBS-free culture media. When used in fibrin degradation experiments, cells were re-suspended at 2× the final desired concentration (2500 cells/ul unless otherwise indicated). To promote collagen production and contraction in addition to fibrin degradation, serum (bovine or human) were added at 2% or higher up to about 10%. Higher cell densities (about 2500 cells/ul and higher up to about 10,000 cells/ul) also promote collagen production. All experiments were conducted with cells at or below passage 8 except for high passage experiments conducted at passage 12. In all experiments, media was changed every 48 hours and any media additives (plasminogen, TGF-β1, drugs, etc.,) were included.
ATPS printing of fibrin micro-scaffolds has previously described above. Briefly, working solutions of PEG with 0.1 U/mL of thrombin were warmed to 37° C. and pipetted into a 96-well plate. For production of droplets, fibrinogen-DEX solutions with cell suspension were maintained at 37° C. and 4 μl per assay (unless otherwise noted) was pipetted directly into the PEG-thrombin media using a semi-automated repeater pipette (Repeater E3X; Eppendorf). Following dispensing of the DEX phase, the plates were placed in an ambient air incubator at 37° C. for 30 min to allow the thrombin to enzymatically crosslink the fibrinogen into a fibrin matrix (FIG. 6A). The PEG-enriched media was removed using a 12-channel micropipette and replaced with 100 μl of fully supplemented media in each well. When applicable, this media addition was supplemented with stimuli as detailed in example 17 below. For the duration of each experiment, assay plates were imaged every 2 hours at 4× with an automated cell culture monitoring system (Incucyte S3; Sartorius). As the assay proceeded, the fibroblasts progressively remodeled the fibrin scaffold as illustrated in FIG. 6C.
After each experiment, the final projected areas of the cell-ECM spheroids were determined from brightfield images taken at the final time point using a benchtop imaging system (2× objective; EVOS M7000; ThermoFisher). These images were then segmented through a process of pixel classification, thresholding, and morphological filtering in order to isolate the cell-ECM construct area from the background.
Pixel classification implemented Ilastic, a freely available image classification tool developed by the European Molecular Biology Laboratory. Ilastik's pixel classification utility implements a random forest classifier for quick and robust segmentation. In order to train the classifier, 10 characteristic images were selected to include different stages of ECM remodeling. In this step, each individual pixel is assigned a probability for belonging to layers for the background or the cell-ECM construct. Ilastik enables interactive training of the random forest classifier via user annotations of the training images. […]

[2] = test system: NHLF cells and diseased IPF cells (primary human lung fibroblasts) in fibrin scaffold; test: Microscale cell-mediated fibrinolysis assay (ATPS-printed fibroblast-laden fibrin scaffolds, brightfield pixel intensity); assay type: cell-based; settings: for impact on fibroblast-mediated fibrinolysis: 400 μM pirfenidone, 0.4 μM nintedanib, 20 μM diethyl-pythiDC, NHLF and IPF cells; for rate of cell-mediated fibrinolysis (50% degradation time): 100 μM hydrogen peroxide
Method: A stock solution of DEX (20% w/w dextran T500; Sigma) was prepared in phosphate buffered saline (PBS) on a rocker overnight. A stock solution of PEG (6% w/w, 35 k MW; Sigma) was prepared in fully supplemented culture media with 10% deionized water to balance osmolality. Both stock solutions were passed through a 0.22 um sterilizing syringe filter before storage. PEG working solutions were stored for up to 2 weeks at 4° C. Thrombin (Human Alpha Thrombin; Enzyme Research Labs) was also added to the PEG solution at a concentration of 0.1 U/mL immediately preceding experiments. Fibrinogen-DEX solutions were prepared by diluting fibrinogen stock solution (human fibrinogen 3; Enzyme Research Labs) to a final concentration of 4 mg/mL in a sterile solution of 4% 10×DMEM, 15% DEX stock solution (to a final concentration of 3% dextran), and 50% cell suspension in growth media. For all experiments excluding cell concentration evaluation, the cell suspension was diluted for 1000 cells per microliter in the final fibrinogen-DEX solution.
Normal human lung fibroblasts (NHLF lot #0000580583; […] Cells were passaged at 80-90% confluence and were sub-cultured in 1:3 ratios by trypsinization. When at the desired confluence, cells were washed with PBS and 0.05% trypsin solution was added to the flask. Cells were incubated for 2 min, diluted with fibroblast growth media, and then harvested and centrifuged (200× g, 5 min) in a conical tube. The supernatant was aspirated and the cell pellet was re-suspended in serum-free culture media. When used in fibrin degradation experiments, cells were re-suspended at 2× the final desired concentration (1000 cells/ul unless otherwise indicated). All experiments were conducted with cells at or below passage 12. In all experiments, media was changed every 48 hours and any media additives (plasminogen, TGF-β1, drugs, etc.) were included.
Working solutions of PEG with 0.1 U/mL of thrombin were warmed to 37° C. and pipetted into a 96-well plate. For production of droplets, fibrinogen-DEX solutions with cell suspension were maintained at 37° C. and pipetted directly into the PEG-thrombin media using either a manual pipette or a semi-automated 96-channel pipette (Viaflo-96; Integra). All assays utilized a volume of 1 μl unless otherwise noted. Following dispensing of the DEX phase, the plates were placed in an incubator at 37° C. for 30 min to allow the thrombin to enzymatically crosslink the fibrinogen into a fibrin matrix (FIG. 1A). The PEG-enriched media was then washed four times by removing, then replacing half of the media with PEG-free media. When applicable, the final media addition was supplemented with stimuli as detailed in Example 5 below. For the duration of each experiment, assay plates were imaged every 2 hours at 4× with an automated cell culture monitoring system (Incucyte S3; Essen Biosystems). After one day of culture, plasminogen (50 μg/mL) (Human Glu-Plasminogen; Enzyme Research Labs) was added as a 10× concentrated solution to each well in order to initiate assay degradation (FIG. 1B), unless otherwise noted for specific conditions. Fresh plasminogen was included with each subsequent media addition. Positive controls with active plasmin (1 U/ml) (Human Plasmin; Enzyme Research Labs) and negative controls without plasminogen were included in each experiment. As cells activated plasminogen, the fibrin scaffold progressively degraded as illustrated in FIG. 1C.
After each experiment, brightfield images for every time point were downloaded in jpeg format from the automated cell culture monitoring system. Python's OpenCV library was implemented for the masking approach illustrated in FIG. 2A. First, a threshold was set at 50% of the maximum intensity (128 for 8-bit integer pixel values) in order to isolate the darker pixels of semi-opaque fibrin hydrogel from the background of the image. A closing morphological filter with a 25×25 kernel was then applied to each mask in order to remove noise. […]

[3] = TGF-β1 treated (2 ng/mL), NHLF and IPF cells, 10 μM TM5275, 500 μM pirfenidone

`O=C(COCC(=O)N1CCN(C(c2ccccc2)c2ccccc2)CC1)Nc1ccc(Cl)cc1C(=O)O` [TM5275] was tested, and the “final area of spheroids” value [1, 3] was “decreased the spheroid area” and the spheroid area ([1]; conditions that omitted TGF-β1, 10 μM TM5275) was “not in conditions that omitted TGF-β1”.

In the case of `CCOC(=O)c1ccc(-c2ncc(C(=O)OCC)s2)nc1` [diethyl-pythiDC], the “impact on fibroblast-mediated fibrinolysis” value (shortened to “impact”) [2] is reported as “significantly (P<0.05) delayed fibrinolysis”.

With `OO` [hydrogen peroxide] the “rate of cell-mediated fibrinolysis (50% degradation time)” value ([2]; conditions that included TGF-β1 (2 ng/ml)) was “no significant difference” and the “rate of cell-mediated fibrinolysis (50% degradation time)” value ([2]; no TGF-β1) was “highly significant decreases in the rates of fibrinolysis”.

For `COC(=O)c1ccc2c(c1)NC(=O)/C2=C(\Nc1ccc(N(C)C(=O)CN2CCN(C)CC2)cc1)c1ccccc1` [nintedanib], the “final area of spheroids” value ([1]; all conditions (with and without TGF-β1; NHLF and IPF cells), 1 μM nintedanib) was “significant decreases in final area for all conditions”, the “final projected area, fibroblast donor variability” value ([1]; nintedanib, 2 normal and 2 IPF donors, one IPF donor not statistically significant (p<0.3)) was “reduced the final projected area” and the “impact” value [2] was “did not show a significant impact on fibrinolysis”.

With `Cc1ccc(=O)n(-c2ccccc2)c1` [pirfenidone] the “final area of spheroids” value [1, 3] was “significant decrease in final area” and the “impact” value [2] was “did not show a significant impact on fibrinolysis”.

B1: plasmin: Human Plasmin (Enzyme Research Labs), positive control for fibrin degradation (protein, UniProt P00747 20-580; P00747 581-810, looked up)
Plasmin heavy chain A: EPLDDYVNTQGASLFSVTKKQLGAGSIEECAAKCEEDEEFTCRAFQYHSKEQQCVIMAENRKSSIIIRMRDVVLFEKKVYLSECKTGNGKNYRGTMSKTKNGITCQKWSSTSPHRPRFSPATHPSEGLEENYCRNPDNDPQGPWCYTTDPEKRYDYCDILECEEECMHCSGENYDGKISKTMSGLECQAWDSQSPHAHGYIPSKFPNKNLKKNYCRNPDRELRPWCFTTDPNKRWELCDIPRCTTPPPSSGPTYQCLKGTGENYRGNVAVTVSGHTCQHWSAQTPHTHNRTPENFPCKNLDENYCRNPDGKRAPWCHTTNSQVRWEYCKIPSCDSSPVSTEQLAPTAPPELTPVVQDCYHGDGQSYRGTSSTTTTGKKCQSWSSMTPHRHQKTPENYPNAGLTMNYCRNPDADKGPWCFTTDPSVRWEYCNLKKCSGTEASVVAPPPVVLLPDVETPSEEDCMFGNGKGYRGKRATTVTGTPCQDWAAQEPHRHSIFTPETNPRAGLEKNYCRNPDGDVGGPWCYTTNPRKLYDYCDVPQCAAPSFDCGKPQVEPKKCPGR
Plasmin light chain B: VVGGCVAHPHSWPWQVSLRTRFGMHFCGGTLISPEWVLTAAHCLEKSPRPSSYKVILGAHQEVNLEPHVQEIEVSRLFLEPTRKDIALLKLSSPAVITDKVIPACLPSPNYVVADRTECFITGWGETQGTFGAGLLKEAQLPVIENKVCNRYEFLNGRVQSTELCAGHLAGGTDSCQGDSGGPLVCFEKDKYILQGVTSWGLGCARPNKPGVYVRVSRFVTWIEGVMRNN
modifications: Plasmin
notes: Human Plasmin (Enzyme Research Labs), positive control for fibrin degradation
With B1 the “matrix degradation, positive control” value ([2]; exogenous plasmin 1 U/ml) was “rapid matrix degradation”.
